Laboratory results from US20090305266A1, “TEST FOR OVARIAN CANCER BY DETECTING ABNORMALITY IN FANCD2 PATHWAY” (priority 2006, published 2009).

How the values were obtained:
Type in all cases: cell-based, human
[1] = test system: ovarian surface epithelium (OSE) cells; test: MMC/DEB-induced chromosomal breakage and radial formation in primary ovarian epithelial cell cultures; conditions: 40 ng/ml MMC or 200 ng/ml DEB, 48 hours
Description: (§1) The ovarian cells were scraped from the ovarian surface and enzymatically disaggregated with Collagenase I (GIBCO-Invitrogen, Grand Island, N.Y.) for 4 hours. The cells were washed in RPMI 1640 medium (GIBCO-Invitrogen) and plated in 25 cm^2 flasks coated with collagen in RPMI 1640 supplemented with 20% FCS (Hyclone, Logan, Utah), 10 μg/ml insulin (Sigma, St. Louis, Mo.) and 10 ng/ml EGF (R&D Systems, Minneapolis, Minn.). Studies were performed on primary cells and immortalized cells. Ovarian cells were immortalized by transduction with a retrovirus expressing SV40 large T-antigen obtained from cell line Ψ-2/U195 (Saito et al., Mutat. Res. 294:255-62, 1993; Williams et al., Mol. Cell Bio. 8:3864-71, 1988). SV40-transformed ovarian epithelial cells were transduced with pMMP retroviral vectors containing full-length FANCD2 cDNA produced from the AM12/RVD2 cell line (Naf et al., Mol. Cell Biol. 18:5952-60, 1998; Kuang et al., Blood 96:1625-32, 2000).
(§2) These cultures were then harvested after a 2 hour exposure to 0.25 μg/ml Colcemid (Sigma). Following a 10 minute treatment with hypotonic solution (0.075 M KCl, 5% fetal calf serum) the cells were fixed with a 3:1 mixture of methanol:acetic acid. Slides were stained with Wright's stain, and breaks and radial formation was assessed by counting the number of breaks and radials in a representative number of cells.

[2] = test system: peripheral blood mono-lymphocytes (PBML); test: MMC/DEB-induced chromosomal breakage and radial formation in PHA-stimulated peripheral blood lymphocytes;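 note: 40 ng/mL MMC and 200 ng/mL DEB for 48 hours at 37 °C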
Description: Peripheral blood was obtained from all subjects.
as §2

[3] = test system: SV40-transformed OV-HR2 ovarian epithelial cells; test: MMC/DEB-induced radial formation, SV40-transformed OV-HR2 cells with and without FANCD2 complementation (FIG. 4B); conditions: 40 ng/ml MMC or 200 ng/mL DEB, 48 hours, 50 metaphases
Description: as §1, §2

[4] = test system: SV40-transformed OV-CA4 ovarian epithelial cells; test: MMC/DEB-induced radial formation, SV40-transformed OV-CA4 cells with and without FANCD2 complementation (FIG. 4B); conditions: 40 ng/ml MMC or 200 ng/mL DEB, 48 hours, 50 metaphases
Description: as §1, §2

[5] = lymphocytes of case OV-CA 1 (carcinoma)
[6] = lymphocytes of case OV-CA 2 (carcinoma)
[7] = lymphocytes of case OV-CA 3 (carcinoma)
[8] = lymphocytes of case OV-CA 4 (carcinoma)
[9] = lymphocytes of case OV-CA 5 (carcinoma)
[10] = lymphocytes of case OV-CA 6 (carcinoma)
[11] = lymphocytes of case OV-CA 7 (carcinoma)
[12] = lymphocytes of case OV-CA 8 (carcinoma)
[13] = lymphocytes of case OV-HR 1 (high-risk)
[14] = lymphocytes of case OV-HR 2 (high-risk)
[15] = lymphocytes of case OV-HR 3 (high-risk)
[16] = lymphocytes of case OV-HR 4 L (high-risk)
[17] = lymphocytes of case OV-HR 5 L (high-risk)
[18] = lymphocytes of case OV-HR 5 R (high-risk)
[19] = lymphocytes of case OV-NL 3 (normal)
[20] = lymphocytes of case OV-NL 9 L (normal)
[21] = lymphocytes of case OV-NL 9 R (normal)
[22] = OV-HR2, FANCD2-complemented (retroviral FANCD2 cDNA)
[23] = OV-HR2, FANCD2-deficient (before FANCD2 expression)
[24] = OV-CA4, FANCD2-complemented (retroviral FANCD2 cDNA)
[25] = OV-CA4, FANCD2-deficient (before FANCD2 expression)

Structure (SMILES): C1OC1C1CO1 (stereo not shown) [DEB, Diepoxybutane]
- Radials (%) OSE MMC/DEB ([1]; case OV-CA 1 (carcinoma)): 16%
- Radials (%) OSE MMC/DEB ([1]; case OV-CA 2 (carcinoma)): 10%
- Radials (%) OSE MMC/DEB ([1]; case OV-CA 3 (carcinoma)): 14%
- Radials (%) OSE MMC/DEB ([1]; case OV-CA 4 (carcinoma)): 48%
- Radials (%) OSE MMC/DEB ([1]; case OV-CA 5 (carcinoma)): 2%
- Radials (%) OSE MMC/DEB ([1]; case OV-HR 1 (high-risk)): 14%
- Radials (%) OSE MMC/DEB ([1]; case OV-HR 2 (high-risk)): 64%
- Radials (%) OSE MMC/DEB ([1]; case OV-HR 3 (high-risk)): 55%
- Radials (%) OSE MMC/DEB ([1]; case OV-HR 4 L (high-risk)): 50%
- Radials (%) OSE MMC/DEB ([1]; case OV-HR 5 L (high-risk)): 20%
- Radials (%) OSE MMC/DEB ([1]; case OV-HR 5 R (high-risk)): 12%
- Radials (%) OSE MMC/DEB ([1]; case OV-NL 1 (normal)): 0/0%
- Radials (%) OSE MMC/DEB ([1]; case OV-NL 2 (normal)): 0/0%
- Radials (%) OSE MMC/DEB ([1]; case OV-NL 3 (normal)): 0%
- Radials (%) OSE MMC/DEB ([1]; case OV-NL 4 (normal)): 1%
- Radials (%) OSE MMC/DEB ([1]; case OV-NL 5 (normal)): 1/1%
- Radials (%) OSE MMC/DEB ([1]; case OV-NL 6 L (normal)): 0/0%
- Radials (%) OSE MMC/DEB ([1]; case OV-NL 6 R (normal)): 0/0%
- Radials (%) OSE MMC/DEB ([1]; case OV-NL 7 (normal)): 2%
- Radials (%) OSE MMC/DEB ([1]; case OV-NL 8 (normal)): 3/3%
- Radials (%) OSE MMC/DEB ([1]; case OV-NL 9 L (normal)): 0/0%
- Radials (%) OSE MMC/DEB ([1]; case OV-NL 9 R (normal)): 0/0%
- Radials (%) PBML MMC/DEB [2, 5]: 0%
- Radials (%) PBML MMC/DEB [2, 6]: 0%
- Radials (%) PBML MMC/DEB [2, 7]: 1/1%
- Radials (%) PBML MMC/DEB [2, 8]: 2%
- Radials (%) PBML MMC/DEB [2, 9]: 0%
- Radials (%) PBML MMC/DEB [2, 10]: 1/1%
- Radials (%) PBML MMC/DEB [2, 11]: 1%
- Radials (%) PBML MMC/DEB [2, 12]: 1%
- Radials (%) PBML MMC/DEB [2, 13]: 0/0%
- Radials (%) PBML MMC/DEB [2, 14]: 0/0%
- Radials (%) PBML MMC/DEB [2, 15]: 0%
- Radials (%) PBML MMC/DEB [2, 16]: 0/0%
- Radials (%) PBML MMC/DEB [2, 17]: 1%
- Radials (%) PBML MMC/DEB [2, 18]: 0/0%
- Radials (%) PBML MMC/DEB [2, 19]: 0/0%
- Radials (%) PBML MMC/DEB [2, 20]: 0/0%
- Radials (%) PBML MMC/DEB [2, 21]: 0/0%
- fraction of MMC- and DEB-exposed cells with radial forms [3, 22]: 10%
- fraction of MMC- and DEB-exposed cells with radial forms [3, 23]: 30%
- fraction of MMC- and DEB-exposed cells with radial forms [4, 24]: 20%
- fraction of MMC- and DEB-exposed cells with radial forms [4, 25]: 48%

Structure (SMILES): CO[C@@]12[C@H](COC(N)=O)C3=C(C(=O)C(C)=C(N)C3=O)N1C[C@@H]1N[C@@H]12 [MMC, Mitomycin C]
- Radials (%) OSE MMC/DEB ([1]; case OV-CA 1 (carcinoma)): 14%
- Radials (%) OSE MMC/DEB ([1]; case OV-CA 2 (carcinoma)): 12%
- Radials (%) OSE MMC/DEB ([1]; case OV-CA 3 (carcinoma)): 16%
- Radials (%) OSE MMC/DEB ([1]; case OV-CA 4 (carcinoma)): 70%
- Radials (%) OSE MMC/DEB ([1]; case OV-CA 5 (carcinoma)): 12%
- Radials (%) OSE MMC/DEB ([1]; case OV-CA 6 (carcinoma)): 66/N.D. %
- Radials (%) OSE MMC/DEB ([1]; case OV-CA 7 (carcinoma)): 0/N.D. %
- Radials (%) OSE MMC/DEB ([1]; case OV-CA 8 (carcinoma)): 33/N.D. %
- Radials (%) OSE MMC/DEB ([1]; case OV-HR 1 (high-risk)): 10%
- Radials (%) OSE MMC/DEB ([1]; case OV-HR 2 (high-risk)): 50%
- Radials (%) OSE MMC/DEB ([1]; case OV-HR 3 (high-risk)): 64%
- Radials (%) OSE MMC/DEB ([1]; case OV-HR 4 L (high-risk)): 66%
- Radials (%) OSE MMC/DEB ([1]; case OV-HR 5 L (high-risk)): 47%
- Radials (%) OSE MMC/DEB ([1]; case OV-HR 5 R (high-risk)): 30%
- Radials (%) OSE MMC/DEB ([1]; case OV-NL 1 (normal)): 0/0%
- Radials (%) OSE MMC/DEB ([1]; case OV-NL 2 (normal)): 0/0%
- Radials (%) OSE MMC/DEB ([1]; case OV-NL 3 (normal)): 2%
- Radials (%) OSE MMC/DEB ([1]; case OV-NL 4 (normal)): 4%
- Radials (%) OSE MMC/DEB ([1]; case OV-NL 5 (normal)): 1/1%
- Radials (%) OSE MMC/DEB ([1]; case OV-NL 6 L (normal)): 0/0%
- Radials (%) OSE MMC/DEB ([1]; case OV-NL 6 R (normal)): 0/0%
- Radials (%) OSE MMC/DEB ([1]; case OV-NL 7 (normal)): 1%
- Radials (%) OSE MMC/DEB ([1]; case OV-NL 8 (normal)): 3/3%
- Radials (%) OSE MMC/DEB ([1]; case OV-NL 9 L (normal)): 0/0%
- Radials (%) OSE MMC/DEB ([1]; case OV-NL 9 R (normal)): 0/0%
- Radials (%) PBML MMC/DEB [2, 5]: 2%
- Radials (%) PBML MMC/DEB [2, 6]: 1%
- Radials (%) PBML MMC/DEB [2, 7]: 1/1%
- Radials (%) PBML MMC/DEB [2, 8]: 4%
- Radials (%) PBML MMC/DEB [2, 9]: 2%
- Radials (%) PBML MMC/DEB [2, 10]: 1/1%
- Radials (%) PBML MMC/DEB [2, 11]: 0%
- Radials (%) PBML MMC/DEB [2, 12]: 3%
- Radials (%) PBML MMC/DEB [2, 13]: 0/0%
- Radials (%) PBML MMC/DEB [2, 14]: 0/0%
- Radials (%) PBML MMC/DEB [2, 15]: 1%
- Radials (%) PBML MMC/DEB [2, 16]: 0/0%
- Radials (%) PBML MMC/DEB [2, 17]: 0%
- Radials (%) PBML MMC/DEB [2, 18]: 0/0%
- Radials (%) PBML MMC/DEB [2, 19]: 0/0%
- Radials (%) PBML MMC/DEB ([2]; lymphocytes of case OV-NL 6 L (normal)): 0/N.D. %
- Radials (%) PBML MMC/DEB ([2]; lymphocytes of case OV-NL 6 R (normal)): 0/N.D. %
- Radials (%) PBML MMC/DEB [2, 20]: 0/0%
- Radials (%) PBML MMC/DEB [2, 21]: 0/0%
- fraction of MMC- and DEB-exposed cells with radial forms [3, 22]: 32%
- fraction of MMC- and DEB-exposed cells with radial forms [3, 23]: 60%
- fraction of MMC- and DEB-exposed cells with radial forms [4, 24]: 56%
- fraction of MMC- and DEB-exposed cells with radial forms [4, 25]: 70%
